Data reported in patent US4432973A, “Benzoyl- and α-hydroxybenzyl-phenyl-glycosides and application thereof in therapeutics” (Societe de Recherches Industrielles (S.O.R.I.), priority 1980, dated 1984).

Experiments:
[1] = Acute toxicity in the mouse by the I.P. route; format: in vivo; conditions: for LD50: read-out: DL-50 (lethal dose involving the death of half of the animals)
From the text: The acute toxicity was studied in the mouse by the I.P. route. It is expressed in the form of DL-50 (lethal dose involving the death of half of the animals) or DL-0 (maximum non-lethal dose).

[2] = tested on: blood platelet aggregation; assay: Spontaneous aggregation: blood platelet anti-aggregation activity; format: in vivo, rat (adult male); conditions: Platelet, t=5 hours, rat; for inhibition in vivo at 100 mg/kg: ip, 100 mg/kg I.P.
Method: The technique used is that of Sanders described in Laboratory Animal Science 27 (No. 5), pages 757-761 (1977).
After administration at 100 mg/kg I.P. (unless specified to the contrary in Table V hereinbelow) of the product to be tested to adult male reproducing rats, two blood samples are taken, one on sodium citrate and the other on sodium citrate treated with formaldehyde at instant t=5 hours.
After centrifugation of the samples, a platelet count is made on the supernatant liquid. The spontaneous aggregation index according to Wu and Hook Stroke 6, 521-524 (1975) is expressed by the relation: [formula]

[3] = Anti-ulcer activity: ulcer caused by aspirin; format: in vivo, rat (male Wistar); conditions: 100 mg/kg I.P.; aspirin 192 mg/kg per os; standardised to control batch and cimetidine (index 1)
Method: The experiment is carried out on male Wistar rats of 180 to 200 g. The products to be tested are administered at 100 mg/kg I.P. (unless indicated to the contrary in Table IV).
At t=0, the rats are made to fast and a first administration of the product to be tested is made.
At t=18 hours, 2 ml of an ulcer-forming suspension with 192 mg of aspirin/kg are administered per os then a second administration of the product to be tested is made.
At t=22 hours, the animals are sacrificed and the ulcers are marked as follows: small point-like ulcers: mark 1 more extensive ulcers: mark 3 highly extensive or very deep ulcers: mark 9
This marking is standardised with respect to a control batch and to cimetidine (a reference product) to which index 1 has been allocated.

[4] = Veinous thrombosis: veinous anti-thrombus activity; format: in vivo; conditions: Rattus norvegicus, ip, 100 mg/kg I.P., 4 to 5 hours after administration, read-out: Diminution of veinous thrombus
Method: The technique used is similar to the one described by Peterson-Zucker in Thrombo.Diath.Haemorh. 23, 1, (1970).
An occlusive thrombus is created in the […] vena cava of a rat by the combined action of an endothelial alteration and a veinous stasis for 15 mins. and 4 to 5 hours after administration of the product to be tested (100 mg/kg I.P.).

[5] = Anti-hypoxic activity: survival to hypoxia (nitrogen-oxygen 95:5); format: in vivo, mouse (Swiss male); conditions: I.P., 1/10th of LD-50 or 100 mg/kg when LD-0 ≥ 800 mg/kg; up to 15 minutes; mouse
Method: The experiment is carried out on batches of 20 Swiss male mice weighing from 20 to 30 g. Each product to be tested is administered to the mice by intraperitoneal route at a dose corresponding to 1/10th of the LD-50 or at a dose of 100 mg/kg when the LD-0 is higher than or equal to 800 mg/kg. The mice are placed in a nitrogen-oxygen (95:5) v/v atmosphere. The survival time of the mice is then measured up to 15 minutes maximum.
The results shown in Table VII are expressed in percentage of survival with respect to a non-treated control batch and a batch treated with an anti-hypoxic reference product [specialty known under the trade name of "Duxil" and which is constituted by a mixture of Almitrine bis-methanesulfonate and of Raubasine in the weight ratio 3:1], the anti-hypoxic reference product being administered at the dose of 18 mg/kg I.P.

SMILES	LD50 ([1]; in vivo, ip, I.P.) [mg/kg]	inhibition in vivo at 45 mg/kg ([2]; 45 mg/kg IP) [%]	Ulcer index [3]	inhibition in vivo at 100 mg/kg [2] [%]	inhibition in vivo at 100 mg/kg [4] [%]	inhibition in vivo at 75 mg/kg ([2]; 75 mg/kg IP) [%]	DL-0 (maximum non-lethal dose) ([1]; in vivo, ip) [mg/kg IP]	Survival (survival percentage to hypoxic aggression) [5]	DL-0 (maximum non-lethal dose) ([1]; I.P.) [mg/kg IP]
Cc1cc(C(O)c2ccccc2C)ccc1O[C@@H]1OC[C@@H](O)[C@H](O)[C@H]1O (some centres unmarked) [Example 105]	450	25 to 39	–	–	–	–	–	–	–
O=[N+]([O-])c1ccc(C(O)c2ccc(O[C@@H]3OC[C@@H](O)[C@H](O)[C@H]3O)cc2)cc1 (stereo partly drawn) [Example 97, [4-(4-nitro-α-hydroxybenzyl)-phenyl]-β-D-xylopyranoside]	> 1000	–	0.52	≥ 40	≥ 50	–	–	–	–
Cc1ccccc1C(=O)c1ccc(O[C@@H]2OC[C@@H](O)[C@H](O)[C@H]2O)cc1 [Example 14]	740	–	–	–	≥ 50	≥ 40	–	–	–
CC(=O)O[C@@H]1[C@@H](OC(C)=O)[C@H](Oc2c(C)cc(C(=O)c3ccc(Cl)cc3)cc2C)OC[C@H]1OC(C)=O [Example 114]	–	–	–	25 to 39	–	–	> 800	++ (from 50 to 79%)	–
CC(=O)N[C@H]1[C@H](Oc2ccc(C(O)c3ccc([N+](=O)[O-])cc3)cc2)O[C@H](CO)[C@@H](O)[C@@H]1O (some centres unmarked) [Example 123]	–	–	–	–	30 to 49	–	> 800	++ (from 50 to 79%)	–
COc1ccc(C(=O)c2cccc(O[C@@H]3OC[C@@H](O)[C@H](O)[C@H]3O)c2)cc1 [Example 54]	–	–	0.57	≥ 40	30 to 49	–	–	–	> 800
OC[C@H]1O[C@@H](Oc2ccc(C(O)c3ccc(Cl)cc3)cc2)[C@H](O)[C@@H](O)[C@@H]1O (some centres unmarked) [Example 131]	730	–	–	–	30 to 49	–	–	++ (from 50 to 79%)	–
O=C(c1ccc(Cl)cc1)c1ccc(O[C@@H]2OC[C@@H](O)[C@H](O)[C@H]2O)cc1 [Example 3]	–	–	–	–	30 to 49	–	> 800	+++ (higher than or equal to 80%)	–
Nc1ccc(C(=O)c2ccc(O[C@@H]3OC[C@@H](O)[C@H](O)[C@H]3O)cc2)cc1 [Example 8]	–	–	0.25	≥ 40	≥ 50	–	> 800	+++ (higher than or equal to 80%)	–
O=C(c1ccc(O[C@@H]2OC[C@@H](O)[C@H](O)[C@H]2O)cc1)c1ccccc1O [Example 125]	1700	–	–	–	30 to 49	–	–	+ (from 30 to 49%)	–
CC(=O)O[C@@H]1[C@@H](OC(C)=O)[C@H](Oc2ccc(C(=O)c3cccc(C(F)(F)F)c3)cc2)OC[C@H]1OC(C)=O [Example 108]	–	–	0.30	–	30 to 49	–	> 800	+ (from 30 to 49%)	–
COc1ccc(C(=O)c2ccc(O[C@@H]3OC[C@@H](O)[C@H](O)[C@H]3O)cc2)cc1 [Example 17]	1600	–	0.69	–	30 to 49	–	–	–	–
Cc1cc(C)c(C(=O)c2cccc(O[C@@H]3OC[C@@H](O)[C@H](O)[C@H]3O)c2)c(C)c1 [Example 71]	–	–	0.98	–	30 to 49	–	–	–	> 800
O=[N+]([O-])c1ccccc1C(O)c1ccc(O[C@@H]2OC[C@@H](O)[C@H](O)[C@H]2O)cc1 (some centres unmarked) [Example 101]	–	–	0.56	–	≥ 50	–	> 800	+ (from 30 to 49%)	–
